In US20250082633A1, “COMPOUNDS AND METHODS FOR MODULATING SPLICING” (REMIX THERAPEUTICS INC., priority 2021, published 2025):
Where a name gives a salt, the structure may show the parent alone. Read-outs that look alike come from different tables or passages of the source.

Assays:
HTT mRNA = assay: RT-qPCR splicing assay, HTT canonical (CJ) and alternative (AJ) junction mRNA; format: cell-based; conditions: Homo sapiens; for IC50: read-out: HTT CJ IC50; for AC50: increase in alternative junction mRNA, read-out: HTT AJ AC50
Method: Compounds described herein were used to modulate RNA transcript abundance in cells. The expression of a target mRNA was measured by detecting the formation of an exon-exon junction in the canonical transcript (CJ). A compound mediated exon-inclusion event was detected by observing an increase in formation of a new junction with an alternative exon (AJ). Real-time qPCR assays were used to detect these splicing switches and interrogate the potency of various compounds towards different target genes. A high-throughput real time quantitative PCR (RT-qPCR) assay was developed to measure these two isoforms of the mRNA (CJ and AJ) for exemplary genes, such as HTT, SMN2, and MYB, together with a control housekeeping gene, GAPDH or GUSB or PPIA, used for normalization. Briefly, the A673 or K562 cell line was treated with various compounds described herein (e.g., compounds of Formula (I)). After treatment, the levels of the HTT, MYB, or SMN2 mRNA targets were determined from each sample of cell lysate by cDNA synthesis followed by qPCR.
• Cells-to-CT 1-step kit: ThermoFisher A25602, Cells-to-CT lysis reagent: ThermoFisher 4391851C, TaqMan™ Fast Virus 1-Step Master Mix: ThermoFisher 4444436 • GAPDH: VIC-PL, ThermoFisher 4326317E (Assay: Hs99999905_m1)—used for K562/suspension cell lines • GUSB: VIC-PL, ThermoFisher 4326320E (Assay: Hs99999908_m1)—used for K562/suspension cell lines • PPIA: VIC-PL, ThermoFisher 4326316E (Assay: Hs99999904_m1)—used for A673/adherent cell lines
The A673 cell line was cultured in DMEM with 10% FBS. Cells were diluted with full growth media and plated in a 96-well plate (15,000 cells in 100 ul media per well). The plate was incubated at 37° C. with 5% CO2 for 24 hours to allow cells to adhere. An 11-point 3-fold serial dilution of the compounds was made in DMSO then diluted in media in an intermediate plate. Compounds were transferred from the intermediate plate to the cell plate with the top dose at a final concentration of 10 uM in the well. Final DMSO concentration was kept at or below 0.25%. The cell plate was returned to the incubator at 37° C. with 5% CO2 for an additional 24 hours.
The K562 cell line was cultured in IMDM with 10% FBS. For K562, cells were diluted with full growth media and plated in either a 96-well plate (50,000 cells in 50 uL media per well) or a 384-well plate (8,000-40,000 cells in 45 uL media per well). An 11-point 3-fold serial dilution of the compounds were made in DMSO then diluted in media in an intermediate plate. Compound was transferred from the intermediate plate to the cell plate with the top dose at a final concentration of 10 uM in the well. Final DMSO concentration was kept at or below 0.25%. Final volume was 100 uL for 96-well plate and 50 uL for 384-well plate. The cell plate was then placed in an incubator at 37° C. with 5% CO2 for 24 hours.
The cells were then gently washed with 50 uL-100 uL cold PBS before proceeding to addition of lysis buffer. 30 uL-50 μL of room temperature lysis buffer with DNAse I (and optionally RNAsin) was added to each well. Cells were shaken/mixed thoroughly at room temperature for 5-10 minutes for lysis to take place and then 3 uL-5 μL of room temperature stop solution was added and wells were shaken/mixed again. After 2-5 minutes, the cell lysate plate was transferred to ice for RT-qPCR reaction setup. The lysates could also be frozen at −80° C. for later use.
In some cases, a direct lysis buffer was used. An appropriate volume of 3× lysis buffer (10 mM Tris, 150 mM NaCl, 1.5%-2.5% Igepal and 0.1-1 U/uL RNAsin, pH 7.4) was directly added to either K562 or A673 cells in media and mixed by pipetting 3 times. The plates were then incubated at room temperature with shaking/rocking for 20-50 minutes to allow for lysis to take place. After this time, the cell lysate plate was transferred to ice to set up for the RT-qPCR reactions. The lysates could also be frozen at −80° C. for later use. […]

[1] = test system: HiBiT-tagged MYB protein in K562 cells; assay: HiBit protein abundance assay, MYB; format: cell-based, human; conditions: K562 HiBiT-modified cells, 24 hours, luminescence
Method: (§1) Compounds described herein were used to screen for effects on quantitative protein abundance using a HiBit assay system (Promega). Quantitative protein abundance was determined by measuring the protein levels of HiBit-tagged protein targets expressed in cell culture via luminescence using the Nano-Glo HiBiT Lytic Detection System, which uses a split complementation assay format to reconstitute NanoBiT enzyme to generate a luminescent signal. A protein abundance assay was developed such that endogenous protein targets could be modified with the HiBiT peptide tag and their abundance could be assessed after compound treatment. Briefly, K562 cell lines containing a HiBiT-modification were treated with various compounds described herein (e.g., compounds of Formulas (I), (II), or (III)). After treatment for 24 hours, the protein abundance of a specific target was determined by measuring luminescence. • Promega Nano-Glo HiBiT Lytic Detection System (cat #N3030) • Corning 384-well TC-treated microplates (cat #3570) • Synthego Engineered Cells Knock-In Clones [table] Cells were maintained in IMDM with 10% FBS. Before the assay, cells were diluted with phenolphthalein-free growth media (IMDM+1% FBS media) and were seeded in a 384-well plate at a density of 10000 cells/well (for each cell line listed in Table 6). Each compound was prepared as a 10-point 3-fold serial dilution in DMSO with the top dose at a final concentration of 10 μM in the well. Unmodified K562 cells were added at the previously specified density with DMSO to serve as an assay baseline and positive control (PC) and DMSO only with the respective modified cell lines was added to the negative control (NC) columns. Final DMSO concentration was kept at or below 0.25%. Treated cell plates were placed in an incubator at 37° C. with 5% CO2 for 24 hours. After 24 hours, 25 μL of Complete HiBit Lytic reagent was added to each well at room temperature (e.g. one plate requiring 10 mL Lytic Buffer, 100 μL LgBiT Protein, 200 μL Lytic Substrate), shaken for 5 minutes at 600 RPM, then left to sit for 10 minutes for signal to stabilize before reading on a Spark Cyto plate reader (Tecan) with a 500 ms measurement time. To determine compound effects on protein abundance of each target in Table 6, the percent response for each respective cell line was calculated at each compound concentration as follows: For the normalized response at each concentration, a four-parameter logistical regression was fit to the data and the response was interpolated at the 50% value to determine a concentration for protein abundance at 50% (IC50) the untreated control.

[2] = test system: HiBiT-tagged HTT protein in K562 cells; assay: HiBit protein abundance assay, HTT; format: cell-based, human; conditions: K562 HiBiT-modified cells, 24 hours, luminescence
Method: as §1

[3] = decrease in CJ mRNA levels, larger panel of genes, Table 3
[4] = decrease in canonical junction mRNA, A673 or K562 cells, 24 hours treatment, Table 2
[5] = A673 or K562 cells, 24 hours treatment, Table 2

| Structure (SMILES) | IC50 (HTT mRNA; [3]) [nM] | IC50 (HTT mRNA; [4]) [nM] | AC50 (HTT mRNA; [5]) [nM] | IC50 [1] [nM] | IC50 [2] [nM] |
| --- | --- | --- | --- | --- | --- |
| Cn1cc2cc(-c3cc(F)c4nn(C5CCNC6(CC6)C5)cc4c3)cc(F)c2n1 (stereo not shown) [Compound 108, 2-(4-azaspiro[2.5]octan-7-yl)-7-fluoro-5-(7-fluoro-2-methyl-indazol-5-yl)indazole] | 100 to 1000 | 100 to 1000 | 100 to 1000 | 100 to 1000 | 100 to 1000 |
| Fc1cc(-c2ccc3ncccc3c2)cc2cn(C3CCNCC3)nc12 [Compound 162, 6-[7-fluoro-2-(4-piperidyl)indazol-5-yl]quinoline] | > 10000 | > 10000 | > 10000 | 1000 to 10000 | 1000 to 10000 |
| Cc1cc(-c2cc(F)c3nn(C4CCNCC4)cc3c2)cc2cn(C)nc12 [Compound 133, 5-(2,7-dimethylindazol-5-yl)-7-fluoro-2-(4-piperidyl)indazole] | < 100 | < 100 | < 100 | 100 to 1000 | < 100 |
| Fc1cc(-c2ccc3cnccc3c2)cc2cn(C3CCNCC3)nc12 [Compound 161, 6-[7-fluoro-2-(4-piperidyl)indazol-5-yl]isoquinoline] | 100 to 1000 | 100 to 1000 | 1000 to 10000 | 1000 to 10000 | 100 to 1000 |
| Cc1cn2nc(-c3cc(F)c4nn(C5CCNC6(CC6)C5)cc4c3)cc(C)c2n1 (stereo not shown) [Compound 171, 6-[2-(4-azaspiro[2.5]octan-7-yl)-7-fluoro-indazol-5-yl]-2,8-dimethyl-imidazo[1,2-b]pyridazine] | < 100 | < 100 | < 100 | 100 to 1000 | < 100 |
| Cc1nc2c(C)cc(-n3cc4cc(N5CCNCC5)cc(F)c4n3)cc2o1 [Compound 119, 6-(7-fluoro-5-piperazin-1-yl-indazol-2-yl)-2,4-dimethyl-1,3-benzoxazole] | > 10000 | > 10000 | > 10000 | 1000 to 10000 | > 10000 |
| Cc1nc2c(C)c(O)c(-c3cc(F)c4nn(C5CCNCC5)cc4c3)cc2o1 [Compound 123, 6-[7-fluoro-2-(4-piperidyl)indazol-5-yl]-2,4-dimethyl-1,3-benzoxazol-5-ol] | 100 to 1000 | 100 to 1000 | 100 to 1000 | 1000 to 10000 | 100 to 1000 |
| Cn1cc2cc(-c3cc(F)c4nn(C5CCNCC5)cc4c3)ccc2n1 [Compound 145, 7-fluoro-5-(2-methylindazol-5-yl)-2-(4-piperidyl)indazole] | 100 to 1000 | 100 to 1000 | 100 to 1000 | 100 to 1000 | 100 to 1000 |
| Cc1cn2nc(-c3ccc4nn(C5CCNCC5)cc4c3)cc(C)c2n1 [Compound 192, 2,8-dimethyl-6-[2-(4-piperidyl)indazol-5-yl]imidazo[1,2-b]pyridazine] | < 100 | < 100 | 100 to 1000 | 100 to 1000 | < 100 |
| Cc1cn2cc(-c3cc(F)c4nn(C5CCNCC5)cc4c3)cc(Cl)c2n1 [Compound 127, 5-(8-chloro-2-methylimidazo[1,2-a]pyridin-6-yl)-7-fluoro-2-(piperidin-4-yl)-2H-indazole hydrochloride salt] | < 100 | < 100 | 100 to 1000 | 100 to 1000 | < 100 |
| Cc1c(O)c(-c2ccc3nn(C4CCNCC4)cc3n2)cc2cn(C)nc12 [Compound 109, 2,7-dimethyl-5-[2-(4-piperidyl)pyrazolo[4,3-b]pyridin-5-yl]indazol-6-ol] | < 100 | < 100 | 100 to 1000 | 100 to 1000 | < 100 |
| Cc1cn2cc(-c3cc(F)c4nn(C5CCNCC5)cc4c3)nc(C)c2n1 [Compound 132, 6-[7-fluoro-2-(4-piperidyl)indazol-5-yl]-2,8-dimethyl-imidazo[1,2-a]pyrazine] | 100 to 1000 | 100 to 1000 | 100 to 1000 | 1000 to 10000 | 100 to 1000 |
| Cc1cn2nc(-c3cc(F)c4nn([C@H]5CCNC[C@@H]5F)cc4c3)cc(C)c2n1 [Compound 167, 6-(7-fluoro-2-((3S,4S)-3-fluoropiperidin-4-yl)-2H-indazol-5-yl)-2,8-dimethylimidazo[1,2-b]pyridazine] | 100 to 1000 | 100 to 1000 | 100 to 1000 | 1000 to 10000 | 100 to 1000 |
| Cn1cc2cc(-c3cc(F)c4nn(C5CCNCC5)cc4c3)cc(C#N)c2n1 [Compound 130, 5-[7-fluoro-2-(4-piperidyl)indazol-5-yl]-2-methyl-indazole-7-carbonitrile] | < 100 | < 100 | < 100 | 100 to 1000 | < 100 |
| Cn1cc2cc(-c3ccc4cn(C5CCNCC5)nc4c3)cc(F)c2n1 [Compound 148, 7-fluoro-2-methyl-5-[2-(4-piperidyl)indazol-6-yl]indazole] | 1000 to 10000 | 1000 to 10000 | > 10000 | > 10000 | 1000 to 10000 |
| Cc1cn2nc(-c3cc(F)c4nn(CC5CCNCC5)cc4c3)cc(C)c2n1 [Compound 212, 6-[7-fluoro-2-(4-piperidylmethyl)indazol-5-yl]-2,8-dimethyl-imidazo[1,2-b]pyridazine] | < 100 | < 100 | < 100 | 100 to 1000 | – |
